Test results taken from publication PMC9797896 (Medicinal Chemistry Research, 2022).

How the values were obtained:
[1] = test system: Vero E6 cells; settings: African green monkey
[2] = in vitro; settings: African green monkey

Row | Structure (SMILES) | CC50 [1] [µM] | CC50 [2] [µM]
1 | CC(C)Nc1nc2cc(Cl)c(Cl)cc2n1[C@H]1O[C@@H](CO)[C@H](O)[C@@H]1O [Maribavir, maribavir] | > 100 | 
2 | Nc1ncnc2c1ncn2[C@@H]1O[C@H](CO)[C@@H](O)[C@@H]1O [Vidarabine, Arabinosyladenine] | > 100 | 
3 | O=c1[nH]cnc2c([C@@H]3N[C@H](CO)[C@@H](O)[C@H]3O)c[nH]c12 [Forodesine, forodesine] | > 100 | 
4 | CC(C)=CCNc1ncnc2c1ncn2[C@@H]1O[C@H](CO)[C@@H](O)[C@H]1O [Riboprine, N^6-(2-Isopentenyl)adenosine] | > 100 | 
5 | CC(C)C(=O)OC[C@H]1O[C@@H](n2ccc(NO)nc2=O)[C@H](O)[C@@H]1O [Molnupiravir, molnupiravir] | > 100 | 
6 | OC[C@H]1O[C@@H](n2cnc3c(N[C@@H]4CCOC4)ncnc32)[C@H](O)[C@@H]1O [Tecadenoson, tecadenoson] | > 100 | 
7 | COc1nc(N)nc2c1ncn2[C@@H]1O[C@H](CO)[C@@H](O)[C@@H]1O [Nelarabine, nelarabine] | > 100 | 
8 | CCC(CC)COC(=O)[C@H](C)N[P@](=O)(OC[C@H]1O[C@@](C#N)(c2ccc3c(N)ncnn23)[C@H](O)[C@@H]1O)Oc1ccccc1 [Remdesivir, remdesivir] |  | > 100
